Laboratory results from ChEMBL document CHEMBL1137245, “Synthesis and anti-HIV-1 activity of a novel series of 1,4,2-benzodithiazine-dioxides” (Bioorg Med Chem Lett, 2006).

Key:
[1] = tested on: Human immunodeficiency virus 1; test: Antiviral activity against HIV1 in CEM cells; type: functional, organism-based; conditions: Human immunodeficiency virus 1, CCRF-CEM
CCRF-CEM = test: Cytotoxicity against CEM cells; type: cell-based; conditions: Homo sapiens
[2] = Therapeutic index, ratio of IC50 for CEM cells to EC50 for HIV1; type: cell-based, CCRF-CEM; conditions: human, read-out: Ratio IC50/EC50

| EC50 [1] [µM] | Compound | IC50 (CCRF-CEM) [µM] | selectivity ratio [2] |
| --- | --- | --- | --- |
| 4.75 | O=S1(=O)c2ccc(Cl)cc2SC2=NCCCN21 | > 200 | > 42.1 |
| 162 | Cc1cc2c(cc1Cl)SC1=NCC(C)CN1S2(=O)=O (stereo not drawn) | > 200 | > 1.23 |
| 0.09 | Cc1cc(Cl)cc2c1S(=O)(=O)N1CCCN=C1S2 | 106 | 1180 |
| 8.52 | Cc1cc2c(cc1Cl)SC1=NCC(C)N1S2(=O)=O (stereo not drawn) | 107 | 12.6 |
| > 200 | Cc1cc2c(cc1Cl)SC1=NC(CSCc3ccccc3)CN1S2(=O)=O (stereo not drawn) | 135 | – |
| 16.5 | Cc1cc2c(cc1Cl)SC1=NCCN1S2(=O)=O | 135 | 8.2 |
| 0.98 | Cc1cc2c(cc1Cl)SC1=NCCCN1S2(=O)=O | > 200 | > 204 |
| 4.04 | Cc1cc2c(cc1Cl)SC1=NC(CCl)CN1S2(=O)=O (stereo not drawn) | 28 | 6.4 |
